Source: article PMC5598241 (Toxicology Reports, 2015)
One block for each molecule: values may come before it.

How the values were obtained:
[1] = test system: P450 enzymes CYP1A2, CYP2C9, CYP2C19, CYP2D6 and CYP3A4; details: furanocoumarin dimers versus monomer; cited from earlier work
Sprague Dawley (SD) rats [2] = test: Liver function tests after single oral PAR overdose with or without GFJ or BGT; type: in vivo, rat; details: for Liver function tests ALP / Liver function tests ALT / Liver function tests AST: PAR 1725 mg/kg oral alone, mean ± SD, n = 5
Sprague Dawley (SD) rats [3] = test: Full blood count after drug administration; type: in vivo, rat; details: for thrombocytopenia (low platelet count): all test animals given PAR, GFJ and BGT = groups co-treated with PAR; for Full blood count Hb / Full blood count Hct / Full blood count MCH / Full blood count MCHC / Full blood count MCV / Full blood count Plt / Full blood count RCC / Full blood count WCC: PAR 1725 mg/kg oral alone, mean ± SD, n = 3
[4] = PAR plasma concentration by HPLC; type: in vivo; details: Sprague Dawley, rat, oral, 1725 mg/kg
SD rats = test: Preliminary determination of the toxic dose of PAR; type: in vivo, rat; details: preliminary experiment
humans = details: stated without reference; cited from earlier work
[5] = 48 h after dosing, listed as PAR only
[6] = 48 h after dosing, listed as PAR-only
[7] = PAR 1725 mg/kg single dose, 72 h, 3 rats
[8] = PAR 1822 mg/kg single dose, 72 h, 3 rats

Molecule: paradisine B
enzyme inhibitor potency relative to 6-7-dihydroxybergamottin (DHB) [1]: over 20 times
enzyme inhibitor potency relative to BGT (GF-I-2) [1]: over 100 times

Molecule: paradisine A
enzyme inhibitor potency relative to 6-7-dihydroxybergamottin (DHB) [1]: over 20 times
enzyme inhibitor potency relative to BGT (GF-I-2) [1]: over 100 times

Molecule: CC(C)=CCC/C(C)=C/COc1c2ccoc2cc2oc(=O)ccc12 [BGT, bergamottin]
PAR-induced hepatotoxicity after PAR overdose (Sprague Dawley (SD) rats [2]; co-administered orally with PAR 1725 mg/kg in rats): prevented
thrombocytopenia (low platelet count) (Sprague Dawley (SD) rats [3]): moderate

Liver function tests ALP (Sprague Dawley (SD) rats [2]; 24 h after dosing): 319 ± 2.1 units/l
Liver function tests ALP (Sprague Dawley (SD) rats [2]; 48 h after dosing): 296 ± 148.5 units/l
Liver function tests ALP (Sprague Dawley (SD) rats [2]; 72 h after dosing): 267 ± 38.9 units/l
concentration at 24 h [4]: 5720 ng/mL
concentration at 48 h [4]: 4450 ng/mL
concentration at 72 h [4]: 2020 ng/mL
Full blood count Hb (Sprague Dawley (SD) rats [3]; 24 h): 15.2 ± 0
Full blood count Hct (Sprague Dawley (SD) rats [3]; 24 h): 0.439 ± 0
Full blood count MCH (Sprague Dawley (SD) rats [3]; 24 h): 19.9 ± 0
Full blood count MCHC (Sprague Dawley (SD) rats [3]; 24 h): 34.5 ± 0
Full blood count MCV (Sprague Dawley (SD) rats [3]; 24 h): 57.6 ± 1
Full blood count Plt (Sprague Dawley (SD) rats [3]; 24 h): 1159 ± 81
Full blood count RCC (Sprague Dawley (SD) rats [3]; 24 h): 7.6 ± 0
Full blood count WCC (Sprague Dawley (SD) rats [3]; 24 h): 4.1 ± 1
Full blood count Hb (Sprague Dawley (SD) rats [3]; 48 h): 15.3 ± 1
Full blood count Hct (Sprague Dawley (SD) rats [3]; 48 h): 0.464 ± 0
Full blood count MCH (Sprague Dawley (SD) rats [3]; 48 h): 20.4 ± 0
Full blood count MCHC (Sprague Dawley (SD) rats [3]; 48 h): 33.1 ± 0
Full blood count MCV (Sprague Dawley (SD) rats [3]; 48 h): 61.1 ± 1
Full blood count Plt (Sprague Dawley (SD) rats [3]; 48 h): 310 ± 305
Full blood count RCC (Sprague Dawley (SD) rats [3]; 48 h): 7.5 ± 0
Full blood count WCC (Sprague Dawley (SD) rats [3]; 48 h): 5.9 ± 0
Full blood count Hb (Sprague Dawley (SD) rats [3]; 72 h): 13.6 ± 2
Full blood count Hct (Sprague Dawley (SD) rats [3]; 72 h): 0.406 ± 0
Full blood count MCH (Sprague Dawley (SD) rats [3]; 72 h): 19.8 ± 1
Full blood count MCHC (Sprague Dawley (SD) rats [3]; 72 h): 33.7 ± 1
Full blood count MCV (Sprague Dawley (SD) rats [3]; 72 h): 58.9 ± 4
Full blood count Plt (Sprague Dawley (SD) rats [3]; 72 h): 326 ± 293
Full blood count RCC (Sprague Dawley (SD) rats [3]; 72 h): 6.8 ± 1
Full blood count WCC (Sprague Dawley (SD) rats [3]; 72 h): 4.7 ± 1
thrombocytopenia (low platelet count) (Sprague Dawley (SD) rats [3]): thrombocytopenia
Molecule: CC(=O)Nc1ccc(O)cc1 [PAR, paracetamol]
Liver function tests ALT (Sprague Dawley (SD) rats [2]; 24 h after dosing): 63 ± 41.3 units/l
Liver function tests AST (Sprague Dawley (SD) rats [2]; 24 h after dosing): 156 ± 76.2 units/l
Liver function tests ALT (Sprague Dawley (SD) rats [2]; [5]): 837 ± 268 units/l
Liver function tests AST (Sprague Dawley (SD) rats [2]; [5]): 1359 ± 405 units/l
Liver function tests ALT (Sprague Dawley (SD) rats [2]; [6]): 837 ± 268.0 units/l
Liver function tests AST (Sprague Dawley (SD) rats [2]; [6]): 1359 ± 404.5 units/l
Liver function tests ALT (Sprague Dawley (SD) rats [2]; 72 h after dosing): 419 ± 690.1 units/l
Liver function tests AST (Sprague Dawley (SD) rats [2]; 72 h after dosing): 512 ± 657.9 units/l
change in liver enzymes (SD rats; PAR 1000 mg dose, 24, 48 and 72 h): no change
ALP (SD rats; [7]): 260.0 ± 36
AST (SD rats; [7]): 512.0 ± 593
ALP (SD rats; [8]): 223.7 ± 82
ALT (SD rats; [8]): 44.3 ± 3
AST (SD rats; [8]): 104.0 ± 14
hepatotoxic dose of PAR in humans (humans): 100 mg/kg
